From paper PMC7377239, “Cardiovascular Effects of Polychlorinated Biphenyls and Their Major Metabolites” (Environmental Health Perspectives, 2020)
Where two headings read alike, the source gives them in different places.

Legend:
[1] = tested on: HUVECs; assay: High-content imaging cytotoxicity in HUVECs, 24 h; type: cell-based, human; details: for minimal effective concentration / viability at 0.01 µM / activity at 0.01 µM / activity at 0.1 µM / viability at 1 µM / activity at 1 µM / viability at 10 µM / activity at 10 µM / viability at 100 µM / activity at 100 µM: Homo sapiens, HUVEC, 24 h; for viability at 0.01 µM / activity at 0.01 µM: concentration 0.01 µM; for viability at 1 µM / activity at 1 µM: concentration 1.00 µM; for viability at 10 µM / activity at 10 µM: concentration 10.00 µM; for viability at 100 µM / activity at 100 µM: concentration 100.00 µM
In short: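 HUVECs (passages 1–5) were plated at 750 cells/well without fibronectin, grown to a monolayer (3–5 d) and exposed to compounds for 24 h at 37°C, 5% CO2. Hoechst 33342, MitoTracker Orange and calcein AM staining was imaged at 10×; readouts were normalized to 0.5% DMSO vehicle and fit to a four-parameter logistic model.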

[2] = tested on: iCell cardiomyocytes (human iPSC-derived cardiomyocytes); assay: High-content imaging of cytotoxicity and mitochondrial integrity in iPSC-CMs; type: cell-based
In short: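 Readouts from high-content images were normalized to vehicle controls containing 0.5% vol/vol DMSO. They were fit to a four-parameter logistic model in R. Points of departure were set using a cutoff of one standard deviation across vehicle control means. Where no concentration–response was seen, the top tested concentration of 100μM was assigned as the no observable adverse effect level.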

[3] = mitoint, 24 hr, read-out: POD huvec.mitoint.24hr
[4] = nma, 24 hr, read-out: POD huvec.nma.24hr
[5] = Homo sapiens, Cardiomyocyte, 24 h, cardiomyocytes (cm), mii, 24 hrs, read-out: POD cm.mii.24hrs
[6] = HUVECs, 24 hr, 0.00 µM = 100.00, read-out: huvec.cyto.24hr
[7] = HUVECs, 24 hr, 0.00 µM = 100.00, read-out: huvec.mito.24hr
[8] = HUVECs, 24 hr, 0.00 µM = 100.00, read-out: huvec.mitoint.24hr
[9] = HUVECs, 24 hr, 0.00 µM = 100.00, read-out: huvec.nma.24hr
[10] = HUVECs, 24 hrs, 0.00 µM = 100.00, read-out: huvec.tc.24hrs
[11] = 100.00 µM, 90min, 0.00 µM = 100.00
[12] = Homo sapiens, Cardiomyocyte, 1.5 h, 90min, 0.00 µM = 100.00, read-out: cm.cam.90min
[13] = Homo sapiens, Cardiomyocyte, 1.5 h, 90min, 0.00 µM = 100.00, read-out: cm.mii.90min
[14] = Homo sapiens, Cardiomyocyte, 1.5 h, 90min, 0.00 µM = 100.00, read-out: cm.mito.90min
[15] = Homo sapiens, Cardiomyocyte, 1.5 h, 90min, 0.00 µM = 100.00, read-out: cm.tc.90min
[16] = Homo sapiens, Cardiomyocyte, 24 h, 24hrs, 0.00 µM = 100.00, read-out: cm.cam.24hrs
[17] = Homo sapiens, Cardiomyocyte, 24 h, 24hrs, 0.00 µM = 100.00, read-out: cm.mii.24hrs
[18] = Homo sapiens, Cardiomyocyte, 24 h, 24hrs, 0.00 µM = 100.00, read-out: cm.mito.24hrs
[19] = Homo sapiens, Cardiomyocyte, 24 h, 24hrs, 0.00 µM = 100.00, read-out: cm.tc.24hrs

Oc1ccc(-c2ccc(Cl)cc2)cc1 [4'-OH-PCB 3]
minimal effective concentration ([1]; cyto, 24 hr, read-out: POD huvec.cyto.24hr): 7.01 µM
minimal effective concentration ([1]; mito, 24 hr, read-out: POD huvec.mito.24hr): 3.9 µM
minimal effective concentration [1, 3]: 11.2 µM
minimal effective concentration [1, 4]: 6.91 µM
minimal effective concentration ([1]; tc, 24 hr, read-out: POD huvec.tc.24hr): 7.01 µM
minimal effective concentration ([2]; Homo sapiens, Cardiomyocyte, 1.5 h, cardiomyocytes (cm), cam, 90 min, read-out: POD cm.cam.90min): 12.4 µM
minimal effective concentration ([2]; Homo sapiens, Cardiomyocyte, 1.5 h, cardiomyocytes (cm), mii, 90 min, read-out: POD cm.mii.90min): 16 µM
minimal effective concentration ([2]; Homo sapiens, Cardiomyocyte, 1.5 h, cardiomyocytes (cm), mito, 90 min, read-out: POD cm.mito.90min): 11.5 µM
minimal effective concentration ([2]; Homo sapiens, Cardiomyocyte, 1.5 h, cardiomyocytes (cm), tc, 90 min, read-out: POD cm.tc.90min): 11.3 µM
minimal effective concentration ([2]; Homo sapiens, Cardiomyocyte, 24 h, cardiomyocytes (cm), cam, 24 hrs, read-out: POD cm.cam.24hrs): 32.3 µM
minimal effective concentration [2, 5]: 15.4 µM
minimal effective concentration ([2]; Homo sapiens, Cardiomyocyte, 24 h, cardiomyocytes (cm), mito, 24 hrs, read-out: POD cm.mito.24hrs): 37.2 µM
minimal effective concentration ([2]; Homo sapiens, Cardiomyocyte, 24 h, cardiomyocytes (cm), tc, 24 hrs, read-out: POD cm.tc.24hrs): 38.4 µM

Clc1ccc(Cl)c(-c2c(Cl)ccc(Cl)c2Cl)c1Cl [(+)-PCB 136, 2,2′,3,3′,6,6′-hexachlorobiphenyl]
huvec.mito.24hr ([1]; HUVECs, 24 hr, concentration 0.10 µM, 0.00 µM = 100.00): 96.64
minimal effective concentration [1, 3]: 0.64 µM
minimal effective concentration [1, 4]: 1.82 µM
viability at 0.01 µM [1, 6]: 89.2%
activity at 0.01 µM [1, 7]: 87.1%
activity at 0.01 µM [1, 8]: 81.7%
activity at 0.01 µM [1, 9]: 95.8%
activity at 0.1 µM ([1]; HUVECs, 24 hr, concentration 0.10 µM, 0.00 µM = 100.00, read-out: huvec.mitoint.24hr): 80.9%
activity at 0.1 µM ([1]; HUVECs, 24 hr, concentration 0.10 µM, 0.00 µM = 100.00, read-out: huvec.nma.24hr): 93.4%
viability at 1 µM [1, 6]: 81.4%
activity at 1 µM [1, 7]: 80.3%
activity at 1 µM [1, 8]: 78.8%
activity at 1 µM [1, 9]: 99.5%
viability at 10 µM [1, 6]: 65.2%
activity at 10 µM [1, 7]: 30.4%
activity at 10 µM [1, 8]: 9.57%
activity at 10 µM [1, 9]: 50.8%
viability at 100 µM [1, 6]: 40%
activity at 100 µM [1, 7]: 25.7%
activity at 100 µM [1, 8]: 14.8%
activity at 100 µM [1, 9]: 75.7%
minimal effective concentration ([1]; HUVECs, 24 hr, MAX 100.00, read-out: huvec.mitoint.24hr POD): 0.64 µM
minimal effective concentration ([1]; HUVECs, 24 hr, MAX 100.00, read-out: huvec.nma.24hr POD): 1.82 µM
viability at 0.01 µM [1, 10]: 89.2%
viability at 1 µM [1, 10]: 81.4%
viability at 10 µM [1, 10]: 65.3%
viability at 100 µM [1, 10]: 40.2%
cm.mii.24hrs ([2]; 0.10 µM, 24hrs, 0.00 µM = 100.00): 104.89
cm.mito.24hrs ([2]; 10.00 µM, 24hrs, 0.00 µM = 100.00): 66.95
cm.mii.90min [2, 11]: 30.66
cm.mito.90min [2, 11]: 0.83
cm.mii.24hrs ([2]; 100.00 µM, 24hrs, 0.00 µM = 100.00): 35.96
viability at 0.01 µM [2, 12]: 94%
activity at 0.01 µM [2, 13]: 115%
activity at 0.01 µM [2, 14]: 94.1%
viability at 0.01 µM [2, 15]: 94.5%
viability at 0.1 µM ([2]; Homo sapiens, Cardiomyocyte, 1.5 h, 0.10 µM, 90min, 0.00 µM = 100.00, read-out: cm.cam.90min): 100%
activity at 0.1 µM ([2]; Homo sapiens, Cardiomyocyte, 1.5 h, 0.10 µM, 90min, 0.00 µM = 100.00, read-out: cm.mii.90min): 108%
activity at 0.1 µM ([2]; Homo sapiens, Cardiomyocyte, 1.5 h, 0.10 µM, 90min, 0.00 µM = 100.00, read-out: cm.mito.90min): 100%
viability at 0.1 µM ([2]; Homo sapiens, Cardiomyocyte, 1.5 h, 0.10 µM, 90min, 0.00 µM = 100.00, read-out: cm.tc.90min): 100%
viability at 1 µM [2, 12]: 97.7%
activity at 1 µM [2, 13]: 103%
activity at 1 µM [2, 14]: 97.5%
viability at 1 µM [2, 15]: 97.8%
viability at 10 µM ([2]; Homo sapiens, Cardiomyocyte, 1.5 h, 10.00 µM, 90min, 0.00 µM = 100.00, read-out: cm.cam.90min): 101%
activity at 10 µM ([2]; Homo sapiens, Cardiomyocyte, 1.5 h, 10.00 µM, 90min, 0.00 µM = 100.00, read-out: cm.mii.90min): 101%
activity at 10 µM ([2]; Homo sapiens, Cardiomyocyte, 1.5 h, 10.00 µM, 90min, 0.00 µM = 100.00, read-out: cm.mito.90min): 102%
viability at 10 µM ([2]; Homo sapiens, Cardiomyocyte, 1.5 h, 10.00 µM, 90min, 0.00 µM = 100.00, read-out: cm.tc.90min): 102%
viability at 0.01 µM [2, 16]: 92.8%
activity at 0.01 µM [2, 17]: 90.7%
activity at 0.01 µM [2, 18]: 95.4%
viability at 0.01 µM [2, 19]: 95.4%
viability at 0.1 µM ([2]; Homo sapiens, Cardiomyocyte, 24 h, 0.10 µM, 24hrs, 0.00 µM = 100.00, read-out: cm.cam.24hrs): 96.6%
activity at 0.1 µM ([2]; Homo sapiens, Cardiomyocyte, 24 h, 0.10 µM, 24hrs, 0.00 µM = 100.00, read-out: cm.mito.24hrs): 98.1%
viability at 0.1 µM ([2]; Homo sapiens, Cardiomyocyte, 24 h, 0.10 µM, 24hrs, 0.00 µM = 100.00, read-out: cm.tc.24hrs): 96.6%
viability at 1 µM [2, 16]: 95.6%
activity at 1 µM [2, 17]: 86.4%
activity at 1 µM [2, 18]: 97%
viability at 1 µM [2, 19]: 96.3%
activity at 10 µM ([2]; Homo sapiens, Cardiomyocyte, 24 h, 10.00 µM, 24hrs, 0.00 µM = 100.00, read-out: cm.mii.24hrs): 99.9%
viability at 100 µM ([2]; Homo sapiens, Cardiomyocyte, 24 h, 100.00 µM, 24hrs, 0.00 µM = 100.00, read-out: cm.cam.24hrs): 1.96%
activity at 100 µM ([2]; Homo sapiens, Cardiomyocyte, 24 h, 100.00 µM, 24hrs, 0.00 µM = 100.00, read-out: cm.mito.24hrs): 1.15%
viability at 100 µM ([2]; Homo sapiens, Cardiomyocyte, 24 h, 100.00 µM, 24hrs, 0.00 µM = 100.00, read-out: cm.tc.24hrs): 2.72%
minimal effective concentration [2, 5]: 50.8 µM
minimal effective concentration ([2]; Homo sapiens, Cardiomyocyte, 24 h, read-out: cm.mii.24hrs POD): 50.8 µM
